Measured values taken from the kinase profiling compilation of Christmann-Franck et al. (2016).

Tests used:
Test in all cases: KINOMEscan competition binding
Details in all cases: compound 10.0 µM
[1] = target: CHEK1 (human) (UniProt O14757)
[2] = target: MARK1 (human) (UniProt Q9P0L2)
[3] = target: EPHB2 (human) (UniProt P29323)
[4] = target: STK16 (human) (UniProt O75716)
[5] = target: SGK110 (human) (UniProt P0C264)
[6] = target: PRKCD (human) (UniProt Q05655)
[7] = target: NEK1 (human) (UniProt Q96PY6)
[8] = target: LATS2 (human) (UniProt Q9NRM7)
Sequence of LATS2 (human) (Q9NRM7 whole entry, looked up): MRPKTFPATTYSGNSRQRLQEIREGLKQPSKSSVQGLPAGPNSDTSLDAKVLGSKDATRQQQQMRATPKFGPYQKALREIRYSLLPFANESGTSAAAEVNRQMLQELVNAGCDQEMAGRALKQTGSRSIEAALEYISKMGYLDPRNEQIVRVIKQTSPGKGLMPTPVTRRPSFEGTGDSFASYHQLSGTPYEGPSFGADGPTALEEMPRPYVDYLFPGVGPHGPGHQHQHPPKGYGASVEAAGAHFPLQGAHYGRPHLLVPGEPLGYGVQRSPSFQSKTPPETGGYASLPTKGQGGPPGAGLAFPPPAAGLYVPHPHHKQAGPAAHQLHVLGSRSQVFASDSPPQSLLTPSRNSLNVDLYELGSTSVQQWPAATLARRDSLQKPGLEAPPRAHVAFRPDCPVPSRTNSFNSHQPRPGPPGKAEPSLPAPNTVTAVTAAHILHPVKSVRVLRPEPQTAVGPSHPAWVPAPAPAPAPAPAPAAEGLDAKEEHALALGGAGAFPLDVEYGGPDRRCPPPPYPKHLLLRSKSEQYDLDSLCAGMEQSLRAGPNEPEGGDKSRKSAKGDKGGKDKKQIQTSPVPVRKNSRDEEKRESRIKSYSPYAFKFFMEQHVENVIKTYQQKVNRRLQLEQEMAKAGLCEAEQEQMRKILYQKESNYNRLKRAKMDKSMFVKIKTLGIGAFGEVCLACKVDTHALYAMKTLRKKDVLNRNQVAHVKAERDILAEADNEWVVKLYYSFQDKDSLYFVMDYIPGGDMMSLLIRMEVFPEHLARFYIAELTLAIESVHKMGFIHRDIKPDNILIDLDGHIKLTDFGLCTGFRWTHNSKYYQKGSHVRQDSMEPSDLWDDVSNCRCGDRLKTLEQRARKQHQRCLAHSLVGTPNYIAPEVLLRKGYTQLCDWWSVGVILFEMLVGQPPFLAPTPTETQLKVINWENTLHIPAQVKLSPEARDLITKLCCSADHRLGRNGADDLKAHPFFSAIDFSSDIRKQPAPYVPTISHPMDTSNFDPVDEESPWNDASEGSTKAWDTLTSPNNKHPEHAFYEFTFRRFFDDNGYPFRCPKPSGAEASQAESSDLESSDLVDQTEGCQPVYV

[9] = target: FES (human) (UniProt P07332)
Sequence of FES (human) (P07332 whole entry, looked up): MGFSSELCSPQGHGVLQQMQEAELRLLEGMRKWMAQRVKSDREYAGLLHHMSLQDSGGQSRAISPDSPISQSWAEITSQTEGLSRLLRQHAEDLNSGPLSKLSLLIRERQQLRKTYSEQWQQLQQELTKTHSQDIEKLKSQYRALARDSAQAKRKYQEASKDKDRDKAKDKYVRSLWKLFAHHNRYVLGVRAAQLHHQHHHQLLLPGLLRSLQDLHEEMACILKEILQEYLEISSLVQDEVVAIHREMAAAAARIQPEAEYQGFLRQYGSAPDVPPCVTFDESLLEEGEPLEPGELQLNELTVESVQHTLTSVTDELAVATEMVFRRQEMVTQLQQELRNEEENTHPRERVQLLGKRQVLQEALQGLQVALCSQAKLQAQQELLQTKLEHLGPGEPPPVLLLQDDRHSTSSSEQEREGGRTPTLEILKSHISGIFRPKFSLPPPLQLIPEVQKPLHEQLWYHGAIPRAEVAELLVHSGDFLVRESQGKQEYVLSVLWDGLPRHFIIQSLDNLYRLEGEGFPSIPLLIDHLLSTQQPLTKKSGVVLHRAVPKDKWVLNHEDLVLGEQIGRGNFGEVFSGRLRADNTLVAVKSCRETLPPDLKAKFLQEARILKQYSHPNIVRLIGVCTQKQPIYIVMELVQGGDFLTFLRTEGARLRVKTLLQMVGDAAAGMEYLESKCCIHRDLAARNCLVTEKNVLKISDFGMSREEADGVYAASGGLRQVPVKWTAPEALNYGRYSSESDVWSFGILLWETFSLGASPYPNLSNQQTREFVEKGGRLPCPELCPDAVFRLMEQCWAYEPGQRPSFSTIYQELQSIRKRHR

[10] = target: EPHB3 (human) (UniProt P54753)
[11] = target: FLT4 (human) (UniProt P35916)
[12] = target: BLK (human) (UniProt P51451)
[13] = target: CLK1 (human) (UniProt P49759)
Sequence of CLK1 (human) (P49759 whole entry, looked up): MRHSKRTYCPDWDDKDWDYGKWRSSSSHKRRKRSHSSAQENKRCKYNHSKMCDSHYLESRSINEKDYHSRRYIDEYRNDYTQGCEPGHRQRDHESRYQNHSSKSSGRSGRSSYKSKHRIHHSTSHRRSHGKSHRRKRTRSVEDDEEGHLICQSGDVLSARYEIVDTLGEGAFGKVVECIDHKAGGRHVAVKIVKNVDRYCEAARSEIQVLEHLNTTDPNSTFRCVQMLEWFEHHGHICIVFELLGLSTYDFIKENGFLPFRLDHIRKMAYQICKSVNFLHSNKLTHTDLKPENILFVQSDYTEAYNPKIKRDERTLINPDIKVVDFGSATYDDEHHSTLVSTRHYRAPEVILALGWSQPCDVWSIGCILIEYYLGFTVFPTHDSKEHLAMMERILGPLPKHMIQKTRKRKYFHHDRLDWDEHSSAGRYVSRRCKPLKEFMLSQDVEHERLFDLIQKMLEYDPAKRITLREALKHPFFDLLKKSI

[14] = target: MAP3K11 (human) (UniProt Q16584)
[15] = target: DMPK (human) (UniProt Q09013)
[16] = target: NEK2 (human) (UniProt P51955)
[17] = target: CDK17 (human) (UniProt Q00537)
[18] = target: BMPR1B (human) (UniProt O00238)
[19] = tested on: EIF2AK4 KD2 (human), Q9P2K8 [S808G]
[20] = target: CDC2L2 (human) (UniProt Q9UQ88)
[21] = target: CAMKK2 (human) (UniProt Q96RR4)
[22] = target: PRKCE (human) (UniProt Q02156)
[23] = target: MST1R (human) (UniProt Q04912)
[24] = target: STK17B (human) (UniProt O94768)
[25] = target: AAK1 (human) (UniProt Q2M2I8)
[26] = target: SRPK1 (human) (UniProt Q96SB4)
[27] = target: ANKK1 (human) (UniProt Q8NFD2)
[28] = target: AKT3 (human) (UniProt Q9Y243)
[29] = tested on: FLT3 (human), P36888 [ITD]
[30] = target: MAPK1 (human) (UniProt P28482)
[31] = target: PAK2 (human) (UniProt Q13177)
Sequence of PAK2 (human) (Q13177 whole entry, looked up): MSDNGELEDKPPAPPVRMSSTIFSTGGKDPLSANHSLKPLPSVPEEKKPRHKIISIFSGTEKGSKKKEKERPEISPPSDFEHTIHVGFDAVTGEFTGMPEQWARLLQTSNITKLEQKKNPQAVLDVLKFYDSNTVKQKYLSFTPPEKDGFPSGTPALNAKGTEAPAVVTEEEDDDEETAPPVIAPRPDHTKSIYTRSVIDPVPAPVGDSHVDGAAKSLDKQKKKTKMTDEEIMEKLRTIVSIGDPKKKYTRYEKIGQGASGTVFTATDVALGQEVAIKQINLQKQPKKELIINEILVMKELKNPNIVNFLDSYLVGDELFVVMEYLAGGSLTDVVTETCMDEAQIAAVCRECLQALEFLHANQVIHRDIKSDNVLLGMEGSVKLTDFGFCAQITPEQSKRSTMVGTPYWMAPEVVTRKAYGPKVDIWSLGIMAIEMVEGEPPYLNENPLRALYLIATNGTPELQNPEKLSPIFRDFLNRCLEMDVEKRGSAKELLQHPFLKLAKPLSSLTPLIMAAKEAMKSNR

[32] = target: STK17A (human) (UniProt Q9UEE5)
[33] = target: PKN1 (human) (UniProt Q16512)
Sequence of PKN1 (human) (Q16512 whole entry, looked up): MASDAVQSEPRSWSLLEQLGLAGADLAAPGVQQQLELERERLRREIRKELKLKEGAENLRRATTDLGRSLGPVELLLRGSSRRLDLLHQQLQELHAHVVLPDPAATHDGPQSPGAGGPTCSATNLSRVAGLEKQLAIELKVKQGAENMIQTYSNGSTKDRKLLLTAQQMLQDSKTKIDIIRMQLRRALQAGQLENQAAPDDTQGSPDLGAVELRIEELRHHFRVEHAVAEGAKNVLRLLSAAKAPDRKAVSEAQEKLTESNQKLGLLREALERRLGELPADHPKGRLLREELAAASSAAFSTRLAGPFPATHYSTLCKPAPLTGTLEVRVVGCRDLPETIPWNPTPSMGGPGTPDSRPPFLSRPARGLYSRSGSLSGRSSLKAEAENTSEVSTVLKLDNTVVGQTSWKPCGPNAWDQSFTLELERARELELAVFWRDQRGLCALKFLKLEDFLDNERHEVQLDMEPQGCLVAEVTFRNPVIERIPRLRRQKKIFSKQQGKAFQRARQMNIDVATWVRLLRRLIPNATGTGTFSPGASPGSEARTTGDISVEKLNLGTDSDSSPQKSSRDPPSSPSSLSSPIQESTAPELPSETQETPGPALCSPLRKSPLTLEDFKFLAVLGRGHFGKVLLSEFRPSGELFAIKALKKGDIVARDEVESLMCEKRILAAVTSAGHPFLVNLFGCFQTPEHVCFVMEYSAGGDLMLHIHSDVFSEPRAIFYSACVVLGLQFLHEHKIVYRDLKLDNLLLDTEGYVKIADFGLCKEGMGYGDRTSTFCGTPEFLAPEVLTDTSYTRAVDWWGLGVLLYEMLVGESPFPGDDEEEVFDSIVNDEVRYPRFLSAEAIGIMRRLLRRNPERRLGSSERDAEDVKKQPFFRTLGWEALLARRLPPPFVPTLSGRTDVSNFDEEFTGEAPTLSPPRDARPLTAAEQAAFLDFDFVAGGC

[34] = target: CSNK1G1 (human) (UniProt Q9HCP0)
[35] = target: JAK1 JH2 pseudokinase (human) (UniProt P23458)
[36] = target: RPS6KA1 KD1 (human) (UniProt Q15418)
Sequence of RPS6KA1 KD1 (human) (Q15418 whole entry, looked up): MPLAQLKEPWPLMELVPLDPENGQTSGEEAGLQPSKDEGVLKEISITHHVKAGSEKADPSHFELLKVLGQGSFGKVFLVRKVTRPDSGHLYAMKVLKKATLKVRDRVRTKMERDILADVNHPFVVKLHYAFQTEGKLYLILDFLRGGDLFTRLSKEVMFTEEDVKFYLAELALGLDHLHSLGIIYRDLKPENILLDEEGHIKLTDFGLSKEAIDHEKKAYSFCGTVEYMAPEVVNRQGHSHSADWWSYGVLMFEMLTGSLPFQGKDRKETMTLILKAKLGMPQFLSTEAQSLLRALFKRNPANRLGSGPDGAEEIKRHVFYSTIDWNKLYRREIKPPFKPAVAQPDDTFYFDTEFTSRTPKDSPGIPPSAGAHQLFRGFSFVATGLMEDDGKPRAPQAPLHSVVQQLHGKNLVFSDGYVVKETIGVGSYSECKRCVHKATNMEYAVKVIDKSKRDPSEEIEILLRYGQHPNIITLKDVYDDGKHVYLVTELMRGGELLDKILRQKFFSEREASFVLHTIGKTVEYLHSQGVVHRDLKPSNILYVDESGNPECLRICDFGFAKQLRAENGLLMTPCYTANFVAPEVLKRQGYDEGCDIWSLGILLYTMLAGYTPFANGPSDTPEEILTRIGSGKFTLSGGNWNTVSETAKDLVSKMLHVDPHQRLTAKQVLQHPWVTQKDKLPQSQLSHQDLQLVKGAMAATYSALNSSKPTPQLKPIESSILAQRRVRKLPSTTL

[37] = target: CAMK2D (human) (UniProt Q13557)
[38] = target: JAK3 JH1 catalytic (human) (UniProt P52333)
[39] = target: LATS1 (human) (UniProt O95835)
[40] = target: STK32C (human) (UniProt Q86UX6)

Sequence of STK16 (human) (O75716 whole entry, looked up): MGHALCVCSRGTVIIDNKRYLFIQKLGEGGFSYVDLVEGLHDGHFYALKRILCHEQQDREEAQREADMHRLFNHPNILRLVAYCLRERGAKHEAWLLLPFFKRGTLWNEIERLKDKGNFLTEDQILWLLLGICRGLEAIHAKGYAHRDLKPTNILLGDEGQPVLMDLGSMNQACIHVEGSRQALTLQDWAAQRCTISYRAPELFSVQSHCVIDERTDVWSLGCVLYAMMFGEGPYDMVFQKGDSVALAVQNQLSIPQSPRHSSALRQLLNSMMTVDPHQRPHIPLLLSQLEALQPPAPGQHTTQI

kinase still bound, per cent of control [1] [%]	kinase still bound, per cent of control [2] [%]	kinase still bound, per cent of control [3] [%]	kinase still bound, per cent of control [4] [%]	kinase still bound, per cent of control [5] [%]	kinase still bound, per cent of control [6] [%]	kinase still bound, per cent of control [7] [%]	kinase still bound, per cent of control [8] [%]	kinase still bound, per cent of control [9] [%]	kinase still bound, per cent of control [10] [%]	kinase still bound, per cent of control [11] [%]	kinase still bound, per cent of control [12] [%]	kinase still bound, per cent of control [13] [%]	kinase still bound, per cent of control [14] [%]	kinase still bound, per cent of control [15] [%]	kinase still bound, per cent of control [16] [%]	kinase still bound, per cent of control [17] [%]	kinase still bound, per cent of control [18] [%]	kinase still bound, per cent of control [19] [%]	kinase still bound, per cent of control [20] [%]	Compound	other results
100	100	100	100	100	100	100	100	100	100	100	100	23	100	100	100	100	100	100	100	Cn1c(=O)n(-c2ccc(C(C)(C)C#N)cc2)c2c3cc(-c4cnc5ccccc5c4)ccc3ncc21	kinase still bound, per cent of control [21]: 100%; kinase still bound, per cent of control [22]: 100%; kinase still bound, per cent of control [23]: 100%; kinase still bound, per cent of control [24]: 100%; kinase still bound, per cent of control [25]: 100%; kinase still bound, per cent of control [26]: 100%; kinase still bound, per cent of control [27]: 100%; kinase still bound, per cent of control [28]: 100%; kinase still bound, per cent of control [29]: 100%; kinase still bound, per cent of control [30]: 100%; kinase still bound, per cent of control [31]: 100%; kinase still bound, per cent of control [32]: 100%; kinase still bound, per cent of control [33]: 100%; kinase still bound, per cent of control [34]: 100%; kinase still bound, per cent of control [35]: 100%; kinase still bound, per cent of control [36]: 100%; kinase still bound, per cent of control [37]: 100%; kinase still bound, per cent of control [38]: 100%; kinase still bound, per cent of control [39]: 100%; kinase still bound, per cent of control [40]: 100%
100	100	100	100	100	100	100	100	100	100	100	100	2.2	100	100	100	100	100	100	100	OCCCNc1cc(-c2ccnc(Nc3cccc(Cl)c3)n2)ccn1	kinase still bound, per cent of control [21]: 100%; kinase still bound, per cent of control [22]: 100%; kinase still bound, per cent of control [23]: 100%; kinase still bound, per cent of control [24]: 100%; kinase still bound, per cent of control [25]: 21%; kinase still bound, per cent of control [26]: 100%; kinase still bound, per cent of control [27]: 100%; kinase still bound, per cent of control [28]: 100%; kinase still bound, per cent of control [29]: 100%; kinase still bound, per cent of control [30]: 100%; kinase still bound, per cent of control [31]: 100%; kinase still bound, per cent of control [32]: 100%; kinase still bound, per cent of control [33]: 100%; kinase still bound, per cent of control [34]: 100%; kinase still bound, per cent of control [35]: 100%; kinase still bound, per cent of control [36]: 100%; kinase still bound, per cent of control [37]: 100%; kinase still bound, per cent of control [38]: 100%; kinase still bound, per cent of control [39]: 100%; kinase still bound, per cent of control [40]: 100%
7	11	100	27	100	100	100	100	11	100	100	0.75	13	100	17	100	100	100	0.35	100	C=CC(=O)Nc1cccc(Oc2nc(Nc3ccc(N4CCN(C)CC4)cc3OC)ncc2Cl)c1	kinase still bound, per cent of control [21]: 10%; kinase still bound, per cent of control [22]: 100%; kinase still bound, per cent of control [23]: 100%; kinase still bound, per cent of control [24]: 100%; kinase still bound, per cent of control [25]: 7%; kinase still bound, per cent of control [26]: 21%; kinase still bound, per cent of control [27]: 100%; kinase still bound, per cent of control [28]: 100%; kinase still bound, per cent of control [29]: 0.85%; kinase still bound, per cent of control [30]: 100%; kinase still bound, per cent of control [31]: 100%; kinase still bound, per cent of control [32]: 1.6%; kinase still bound, per cent of control [33]: 100%; kinase still bound, per cent of control [34]: 100%; kinase still bound, per cent of control [35]: 100%; kinase still bound, per cent of control [36]: 12%; kinase still bound, per cent of control [37]: 100%; kinase still bound, per cent of control [38]: 0.4%; kinase still bound, per cent of control [39]: 100%; kinase still bound, per cent of control [40]: 100%
